“And” between values parts separate entries of the source, which are not always exact repeats. Identical values can stand only once.
Test system: myxovirus-resistant protein 1 (Mx1)
Assay: RT-qPCR of Mx1 mRNA in MDCK cells with or without A/PR/8/34 virus
Format: cell-based, canine
Settings: for MDCK Mx1 mRNA, ave / MDCK Mx1 mRNA, individual replicates: 12.5uM, relative to virus - DMSO; for MDCK Mx1 mRNA, ave: ave of #1-3 exp; for MDCK Mx1 mRNA, individual replicates: replicates 1-3 of #1, #2, #3 exp

Row | Compound | mRNA level of Mx1 compared with 4 or 5-treatment | MDCK Mx1 mRNA, ave (virus +) | MDCK Mx1 mRNA, ave (virus -) | further results
1 | C=C[C@@](C)(/C=C/c1ccc(O)cc1)CCC=C(C)C [(+)-(S)-bakuchiol, reference compound] | significantly reduced | 1.1334 | 0.4419 | virus-induced upregulation of Mx1 mRNA: significantly reduced; MDCK Mx1 mRNA, individual replicates (virus +): 0.2413 and 1.8944 and 2.953 and 2.445 and 0.9019 and 0.5846 and 0.6126 and 0.2532 and 0.315; MDCK Mx1 mRNA, individual replicates (virus -): 0.2755 and 0.4409 and 0.4188 and 0.4047 and 0.5819 and 0.4639 and 0.4949 and 0.4956 and 0.401
2 | C=C[C@]1(C)CCC(C(C)(C)O)C(c2ccc(O)cc2)C1 (stereo in doubt) [cyclobakuchiol C] | – | 4.111 | 1.049 | MDCK Mx1 mRNA, individual replicates (virus +, listed as Cyclobakuchiol C): 0.595 and 6.605 and 6.273 and 8.3748 and 5.332 and 3.973 and 4.3945 and 0.841 and 0.6149; MDCK Mx1 mRNA, individual replicates (virus -, listed as Cyclobakuchiol C): 0.8391 and 0.8734 and 1.094 and 0.9606 and 1.231 and 1.129 and 1.257 and 1.188 and 0.8673
3 | C=C[C@]1(C)CCC(C(C)(C)O)C(c2ccc(O)cc2)C1 (stereo in doubt) [cyclobakuchiol D] | – | 4.805 | 1.431 | MDCK Mx1 mRNA, individual replicates (virus +, listed as Cyclobakuchiol D): 0.823 and 8.732 and 6.853 and 11.4737 and 5.421 and 3.904 and 4.71 and 0.7737 and 0.5563; MDCK Mx1 mRNA, individual replicates (virus -, listed as Cyclobakuchiol D): 1.033 and 1.181 and 1.602 and 1.158 and 2.885 and 1.4873 and 1.3014 and 1.1198 and 1.11
4 | C=C[C@]1(C)CCC(C(=C)C)C(c2ccc(O)cc2)C1 (stereo in doubt) [cyclobakuchiol A] | significantly reduced | 1.207 | 0.4356 | MDCK Mx1 mRNA, individual replicates (virus +, listed as Cyclobakuchiol A): 0.2527 and 2.463 and 2.156 and 2.352 and 0.9916 and 0.8981 and 0.9472 and 0.4146 and 0.3917; MDCK Mx1 mRNA, individual replicates (virus -, listed as Cyclobakuchiol A): 0.3455 and 0.4424 and 0.367 and 0.3469 and 0.4512 and 0.4646 and 0.7257 and 0.3943 and 0.3827
5 | C=C[C@]1(C)CCC(C(=C)C)C(c2ccc(O)cc2)C1 (stereo in doubt) [cyclobakuchiol B] | – | 2.462 | 0.5972 | MDCK Mx1 mRNA, individual replicates (virus +, listed as Cyclobakuchiol B): 0.2997 and 4.213 and 3.979 and 5.553 and 2.777 and 2.185 and 2.395 and 0.2998 and 0.4603; MDCK Mx1 mRNA, individual replicates (virus -, listed as Cyclobakuchiol B): 0.4518 and 0.5333 and 0.4418 and 0.5841 and 1.295 and 0.3791 and 0.8214 and 0.4024 and 0.4657

Reference: PMC7997032, “Organic synthesis and anti-influenza A virus activity of cyclobakuchiols A, B, C, and D” (PLoS ONE, 2021)
